Experiment [1] has as its target T1, human somatostatin receptor subtype SSTR1 (Homo sapiens, UniProt P30872).
T1 construct: expressed in transfected cells; host or cells: Chinese hamster ovary (CHO) cells, membranes
As to the kind of experiment: Competition binding with 125I-LTT-sst-28, CHO cell membranes, SSTR1. As to conditions: membranes of CHO cells stably transfected with human SSTR1, Ki from IC50 by Cheng-Prusoff. As to the method:
(§1) The affinity of the compounds of the invention for the five human somatostatin receptor subtypes (SSTR1, SSTR2, SSTR3, SSTR4, and SSTR5) was determined in competition binding assays with (^125I-Tyr)-[Leu^8, DTrp^22]-somatostatin-28 (^125I-LTT-sst-28). The biological material for these experiments consisted of membranes from Chinese hamster ovary (CHO) cells stably transfected with one of the five human somatostatin receptor subtypes. Membranes (3-20 μg of total protein per sample) and trace amount of ^125I-LTT-sst-28 were incubated in 10 mM Hepes, 1 mM EDTA, 5 mM MgCl2, 5 mg/ml of BSA and 30 μg/ml bacitracin, pH 7.6 with six concentrations of the compounds. Each concentration was run in duplicate. Nonspecific binding was defined by 1 μM somatostatin-14 (sst-14) and corresponded to 5-25% of total binding. After 60 min at room temperature, incubations were terminated by rapid vacuum filtration through GF/B glass fiber filter mats (presoaked at 4° C. in 200 ml of 10 mM Hepes, 1 mM EDTA, 5 mM MgCl2, pH 7.6) and three 5 ml washes with ice-cold wash buffer (20 mM TRIS, 1 mM EDTA, 5 mM MgCl2, pH 7.4). The filters were then dried, impregnated with scintillate and their radioactivity was measured by scintillation counting. The analysis of the experiments was carried out by nonlinear least square curve fitting. Affinity constants (Ki) were calculated from the IC50 values according to the Cheng-Prusoff's equation (Cheng and Prusoff, 1973). Experiments were repeated a minimum of three times.

Experiment [2] concerns the target T2, human somatostatin receptor subtype SSTR3 (Homo sapiens, UniProt P32745).
T2 construct: expressed in transfected cells; host or cells: Chinese hamster ovary (CHO) cells, membranes
As to the kind of experiment: Competition binding with 125I-LTT-sst-28, CHO cell membranes, SSTR3. Conditions: membranes of CHO cells stably transfected with human SSTR3, Ki from IC50 by Cheng-Prusoff. As to the method: as §1

For experiment [3], the target named is T3, human somatostatin receptor subtype SSTR5 (Homo sapiens, UniProt P35346).
T3 construct: expressed in transfected cells; host or cells: Chinese hamster ovary (CHO) cells, membranes
T3 sequence (P35346 whole entry): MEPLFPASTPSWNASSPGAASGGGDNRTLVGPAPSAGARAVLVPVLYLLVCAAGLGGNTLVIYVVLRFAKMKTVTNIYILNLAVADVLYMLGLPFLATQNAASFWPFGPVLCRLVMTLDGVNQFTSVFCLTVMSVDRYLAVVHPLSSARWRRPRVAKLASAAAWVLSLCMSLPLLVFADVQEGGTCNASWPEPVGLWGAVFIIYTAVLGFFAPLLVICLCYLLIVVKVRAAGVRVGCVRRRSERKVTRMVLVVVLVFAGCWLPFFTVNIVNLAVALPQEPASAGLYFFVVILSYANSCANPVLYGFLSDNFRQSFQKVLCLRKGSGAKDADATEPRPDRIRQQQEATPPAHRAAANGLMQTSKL
Briefly: Competition binding with 125I-LTT-sst-28, CHO cell membranes, SSTR5. Conditions: membranes of CHO cells stably transfected with human SSTR5, Ki from IC50 by Cheng-Prusoff. On the procedure:
as §1

The target of experiment [4] is T4, human somatostatin receptor subtype SSTR2 (Homo sapiens, UniProt P30874).
T4 construct: expressed in transfected cells; host or cells: Chinese hamster ovary (CHO) cells, membranes
T4 sequence (P30874 whole entry): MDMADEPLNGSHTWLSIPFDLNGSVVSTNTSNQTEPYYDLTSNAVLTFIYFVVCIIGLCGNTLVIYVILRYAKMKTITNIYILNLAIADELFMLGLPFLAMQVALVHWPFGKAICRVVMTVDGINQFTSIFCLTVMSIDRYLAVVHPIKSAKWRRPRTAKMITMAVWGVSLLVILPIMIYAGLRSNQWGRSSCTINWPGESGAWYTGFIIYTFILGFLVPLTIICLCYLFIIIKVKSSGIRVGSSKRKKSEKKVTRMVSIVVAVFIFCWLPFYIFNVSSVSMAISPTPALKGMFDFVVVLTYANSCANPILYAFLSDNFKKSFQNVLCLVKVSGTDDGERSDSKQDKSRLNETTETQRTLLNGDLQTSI
As to the kind of experiment: Competition binding with 125I-LTT-sst-28, CHO cell membranes, SSTR2. Conditions: membranes of CHO cells stably transfected with human SSTR2, Ki from IC50 by Cheng-Prusoff. As to the method:
as §1

Experiment [5] concerns the target T5, human somatostatin receptor subtype SSTR4 (Homo sapiens, UniProt P31391).
T5 construct: expressed in transfected cells; host or cells: Chinese hamster ovary (CHO) cells, membranes
Briefly: Competition binding with 125I-LTT-sst-28, CHO cell membranes, SSTR4. As to conditions: membranes of CHO cells stably transfected with human SSTR4, Ki from IC50 by Cheng-Prusoff. On the procedure: as §1

For a further experiment, the system named is NPFF receptor. Conditions: rat tissue; cited from earlier work.

Usually Ki stands for a dissociation constant, usually derived from enzyme kinetics or from competition with a known ligand.

T1 sequence (P30872 whole entry): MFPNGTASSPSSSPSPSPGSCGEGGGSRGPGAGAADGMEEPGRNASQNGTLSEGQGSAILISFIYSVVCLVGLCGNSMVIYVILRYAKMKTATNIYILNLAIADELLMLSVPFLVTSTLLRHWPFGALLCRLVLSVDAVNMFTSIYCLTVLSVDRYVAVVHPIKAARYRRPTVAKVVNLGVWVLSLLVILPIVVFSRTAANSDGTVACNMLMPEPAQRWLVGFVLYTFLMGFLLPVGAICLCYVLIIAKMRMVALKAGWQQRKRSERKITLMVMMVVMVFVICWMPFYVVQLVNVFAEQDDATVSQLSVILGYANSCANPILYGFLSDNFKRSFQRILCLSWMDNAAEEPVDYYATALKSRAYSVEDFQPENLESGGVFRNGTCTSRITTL
T5 sequence (P31391 whole entry): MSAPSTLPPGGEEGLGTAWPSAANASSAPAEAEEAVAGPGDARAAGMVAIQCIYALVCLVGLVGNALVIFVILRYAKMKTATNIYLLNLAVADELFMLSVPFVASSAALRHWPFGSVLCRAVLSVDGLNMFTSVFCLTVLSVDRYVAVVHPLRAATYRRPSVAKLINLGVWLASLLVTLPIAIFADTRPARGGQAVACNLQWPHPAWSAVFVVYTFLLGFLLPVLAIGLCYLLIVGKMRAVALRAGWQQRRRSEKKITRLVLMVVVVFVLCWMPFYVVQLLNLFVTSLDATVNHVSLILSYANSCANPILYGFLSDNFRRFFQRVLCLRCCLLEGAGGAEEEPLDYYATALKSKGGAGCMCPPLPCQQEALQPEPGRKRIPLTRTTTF
T2 sequence (P32745 whole entry): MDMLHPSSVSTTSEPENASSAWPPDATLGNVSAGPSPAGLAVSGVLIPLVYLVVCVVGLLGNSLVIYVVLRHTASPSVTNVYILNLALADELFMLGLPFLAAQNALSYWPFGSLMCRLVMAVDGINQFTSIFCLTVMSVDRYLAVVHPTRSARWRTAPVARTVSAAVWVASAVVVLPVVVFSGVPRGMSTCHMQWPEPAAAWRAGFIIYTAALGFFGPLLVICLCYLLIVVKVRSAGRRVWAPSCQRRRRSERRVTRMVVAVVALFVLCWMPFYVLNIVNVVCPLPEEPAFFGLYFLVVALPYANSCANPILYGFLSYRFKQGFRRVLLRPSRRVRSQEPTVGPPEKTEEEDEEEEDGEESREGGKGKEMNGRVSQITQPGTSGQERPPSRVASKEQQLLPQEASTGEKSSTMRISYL

As to `Cc1ccc(S(=O)(=O)N[C@@H](CCCNC(=N)N)C(=O)N[C@@H](Cc2ccccc2)C(N)=O)c2ccccc12` [compound 1, N-((S)-1-carbamoyl-2-phenylethyl)-5-guanidino-(S)-2-(N′-(4-methyl-1-naphthalenesulfonyl)amino)pentanamide], the Ki in experiment [1] was 0.073 ± 0.019 µM; in experiment [2], over 10 µM; in experiment [3], over 10 µM; in experiment [4], over 10 µM; in experiment [5], 0.0036 ± 0.0007 µM.

As to `Cc1ccc(S(=O)(=O)N[C@@H](CCCN)C(=O)N[C@@H](Cc2ccccc2)C(N)=O)c2ccccc12` [compound 3, 5-amino-N-((S)-1-carbamoyl-2-phenylethyl)-(S)-2-(N′-(4-methyl-1-naphthalenesulfonyl)amino)pentanamide], the inhibitory constant (Ki) is 0.26 ± 0.02 µM in experiment [1]; over 1 µM in experiment [2]; over 1 µM in experiment [3]; over 1 µM in experiment [4]; 0.0065 ± 0.0017 µM in experiment [5].

For `Cc1ccc(S(=O)(=O)N[C@@H](CCN)C(=O)N[C@@H](Cc2ccccc2)C(N)=O)c2ccccc12` [compound 5, 4-amino-N-((S)-1-carbamoyl-2-phenylethyl)-(S)-2-(N′-(4-methyl-1-naphthalenesulfonyl)amino)butanamide], the Ki in experiment [1] is 0.5 ± 0.15 µM; in experiment [3], 0.54 ± 0.08 µM; in experiment [4] it was over 1 µM.

Turning to `CN(C)c1cccc2c(S(=O)(=O)N[C@@H](CCCN=C(N)N)C(=O)N[C@@H](Cc3ccccc3)C(N)=O)cccc12` [Dansyl-RFamide], the “affinity for NPFF receptor” value with NPFF receptor is on record as 73 nM.

Consider `CCc1ccc(S(=O)(=O)N[C@@H](CCN)C(=O)N[C@@H](Cc2ccccc2)C(N)=O)c2ccccc12` [compound 6, 4-amino-N-((S)-1-carbamoyl-2-phenylethyl)-(S)-2-(N′-(4-ethyl-1-naphthalenesulfonyl)amino)butanamide], for which the Ki in experiment [1] was 0.99 ± 0.08 µM; in experiment [4], over 10 µM; in experiment [5], 0.0023 ± 0.0004 µM.

Consider `Cc1ccc(S(=O)(=O)N[C@@H](CCCNC(=N)N)C(=O)N[C@H](C(N)=O)C(c2ccccc2)c2ccccc2)c2ccccc12` [compound 2, N-((S)-1-carbamoyl-2,2-diphenylethyl)-5-guanidino-(S)-2-(N′-(4-methyl-1-naphthalenesulfonyl)amino)pentanamide], for which the inhibitory constant (Ki) in experiment [1] was 0.034 ± 0.014 µM; in experiment [2], over 5 µM; in experiment [3], over 5 µM; in experiment [4] it was over 10 µM; in experiment [5], 0.0015 ± 0.0007 µM.

On to `Cc1ccc(S(=O)(=O)N[C@@H](CCN)C(=O)N[C@H](C(N)=O)C(c2ccccc2)c2ccccc2)c2ccccc12` [compound 7, 4-amino-N-((S)-1-carbamoyl-2,2-diphenylethyl)-(S)-2-(N′-(4-methyl-1-naphthalenesulfonyl)amino)butanamide], for which the Ki in experiment [1] was over 1 µM; in experiment [2] it was over 5 µM; in experiment [3] it was over 10 µM; in experiment [4], over 10 µM; in experiment [5], 0.0053 ± 0.0021 µM.

(Values after patent US20070129313A1, “Sulfonylamino-peptidomimetics active on the somatostatin receptor subtypes 4 (sstr4) and 1 (sstr1)” (SIEGFRIED WURSTER, priority 2003, published 2007).)
